Results taken from patent US20040039199A1, “Oxabispidine compound useful in the treatment of cardiac arrhythmias” (priority 2000, published 2004).

Test system: Anaesthetised Guinea Pigs
Assay: Test A: Primary electrophysiological effects in anaesthetised guinea pigs
Assay type: in vivo, guinea pig
Details: index of class III electrophysiological potency; MAP duration at 75 percent repolarization during pacing; intravenous infusion, cumulative doses; derived from mean dose-response curve
Procedure: Primary Electrophysiological Effects In Anaesthetised Guinea Pigs
Guinea pigs weighing between 660 and 1100 g were used. The animals were housed for at least one week before the experiment and had free access to food and tap water during that period.
Anaesthesia was induced by an intraperitoneal injection of pentobarbital (40 to 50 mg/kg) and catheters were introduced into one carotid artery (for blood pressure recording and blood sampling) and into one jugular vein (for drug infusions). Needle electrodes were placed on the limbs for recording of ECGs (lead II). A thermistor was placed in the rectum and the animal was placed on a heating pad, set to a rectal temperature of between 37.5 and 38.5° C. […]
The left ventricular epicardium was exposed by a left-sided thoracotomy, and a custom-designed suction electrode for recording of the monophasic action potential (MAP) was applied to the left ventricular free wall. The electrode was kept in position as long as an acceptable signal could be recorded, otherwise it was moved to a new position. […]
The blood pressure, the MAP signal and the lead II ECG were recorded on a Mingograph ink-jet recorder (Siemens-Elema, Sweden). […] The signals were processed using a custom-made program developed for acquisition and analysis of physiological signals measured in experimental animals (see Axenborg and Hirsch, Comput. Methods Programs Biomed. 41, 55 (1993)). […]

CC(C)(C)C(=O)CN1CC2CN(CCCNc3ccc(C#N)cc3)CC(C1)O2.O=S(=O)(O)c1ccccc1 [Compound A, 4-({3-[7-(3,3-dimethyl-2-oxobutyl)-9-oxa-3,7-diazabicyclo[3.3.1]non-3-yl]propyl}amino)benzonitrile, benzenesulfonic acid salt]
D10 (cumulative dose prolonging the MAP duration by 10% from the baseline): 6.7
